Measurements taken from patent EP1800684A1, “Novel alkyl phospholipid derivatives and uses thereof” (Zentaris GmbH, priority 2005, dated 2007).
Converted amounts (≈) assume the structure as drawn.

Tests used:
Assay type in all cases: cell-based
[1] = system: PC3 (ATCC CRL1435, human prostate carcinoma); test: XTT cytotoxicity assay, PC3 cells; conditions: PC-3, 48 h, 2 days of continuous drug exposure
Method: (§1) Human tumor cell lines KB/HeLa (ATCC CCL17, human cervix carcinoma), PC3 (ATCC CRL1435, human prostate carcinoma) and RKOp21 (human colon adenocarcinoma) cells were used in an automated XTT screening assay for the assessment of cytotoxicity.
(§2) The XTT assay quantifies cellular metabolic activity which correlates with cell viability and cell number. Test compounds (selected compounds of the invention and known substances as controls) are dissolved in culture medium at 600µM and added to the tumor cells in 10 different concentrations in a semi-logarithmic fashion starting from 100 µM as highest concentration.
(§3) 48h later cellular metabolic activity of cells treated with test compounds is quantified by measurement of the absorbance at 490nm (conversion of XTT dye) in comparison to untreated control cells (100% viability).
(§4) KB/HeLa and PC3 cells were cultivated in RPMI medium supplemented with 10% heat inactivated fetal calf serum, 2 mM glutamine, 100 U/ml penicillin, and 100 µg/ml streptomycin. RKOp21 cells were grown in DMEM supplemented with 10% heat inactivated fetal calf serum, 2 mM glutamine, 100 U/ml penicillin, and 100 µg/ml streptomycin. All cells were cultured at 37°C in 5% CO2 humidified air.
(§5) On the first day of the experiment cells were harvested from exponential phase cultures by trypsination, counted and plated into 96 well flat-bottom micro titer plates depending on the cell line as listed below:
(§6) After a 24h recovery to allow the cells to resume exponential growth, the test compounds were diluted immediately prior to use and transferred in 25µl volume to the wells.
(§7) Following 2 days of continuous drug exposure 50µl of freshly prepared XTT-PMS solution (2% […] PMS in PBS + 98% 1 mg/ml XTT in RPMI 1640 without phenol red) was added to the wells. To measure the proportion of living cells, the cells were incubated for 3 h with XTT-PMS reagent at 37°C, 5% CO2, humidified atmosphere allowing to form the formazan salt. The amount of soluble formazan salt produced by cellular reduction of XTT is quantified by measuring the absorbance at 490nm using the Biomek® 2000 ELISA plate reader.
(§8) %-inhibition (cytotoxicity) of each test compound was calculated in relation to untreated control cells. Inhibition curves were generated and IC50 values calculated by using GraphPad Prism.

[2] = system: Candida parapsilosis (ATCC 22019); test: Anti-fungal susceptibility test (microdilution), fungus D; conditions: ATCC22019, no visible growth after 48 hours at 35° C, read-out: MIC
Method: (§9) The antifungal activities of the test compounds (compounds of the invention and known prior art compounds) were measured according to standard microdilution methods (Cryptococcus/Aspergillus: Ghannoum et al., Journal of Clinical Microbiology 1992, 30 (11): 2881-2886; Candida: Reference method for broth dilution susceptibility testing of yeast: proposed standard, NCCLS document M27-P, National Committee for Clinical Laboratory Standards 1992, Villanova, Pa).
(§10) A serial dilution series starting from 64 µg/mL test compound per well down to 0.125 µg/mL test compound per well was applied for each test compound on each fungus. The MIC of each compound was defined as the concentration which produces no visible growth after 48 hours (Candida) and 72 hours (Cryptococcus, Aspergillus) of culture at 35° C.
(§11) The following fungi were assessed: • A) Candida albicans (ATCC 10231) • B) Candida albicans (ATCC 90028) • C) Candida albicans (strain TS3, Shrikantha et al., Journal of Bacteriology 2000, 182(6):1580-1591) • D) Candida parapsilosis (ATCC 22019) • E) Cryptocoocus neoformans (ATCC 90112) • F) Cryptocoocus neoformans (strain H99; Ganendren et al., Antimicrobial Agents and Chemotherapy, 2004, 48(5):1561-1569) • G) Cryptocoocus gattii (ATCC 32608) • H) Aspergillus fumigatus (ATCC 204305) • I) Aspergillus fumigatus (strain 322-384)

[3] = system: Plasmodium falciparum (strain 3D7); test: In vitro drug susceptibility assay, protozoon D (3[H]-hypoxanthine method)
Method: Plasmodium falciparum strain K1 and strain 3D7 parasites were cultured according to Trager W and Jensen JB (Science 1976, 193: 673-675). In vitro drug susceptibility assays with the test compounds were carried out according to Korsinczky M et al. (Antimicrobial agents and chemotherapy 2000, 44(8): 2100-2108) and Fivelman QL et al. (Antimicrobial agents and chemotherapy 2004, 48(11): 4097-4102) using a ^3[H]-hypoxanthine radioisotope method. ED50 values were calculated with Msxlfit (IDBS).
(§12) The following protozoa were assessed: • A) Trypanosoma cruzi (Tulahuan-LACZ amstigotes in PEM, Lorente SO et al., Antimicrobial agents and chemotherapy 2004, 48(8): 2937-2950; Buckner et al., Infection and Immunity 1999, 67(1): 403-409; Buckner et al., Antimicrobial Agents and Chemotherapy 1996, 40(11): 2592-2597) • B) Trypanosoma brucei rhodesiense (strain STIB900, Lorente SO et al., Antimicrobial agents and chemotherapy 2004, 48(8): 2937-2950; Habtemariam S, BMC Pharmacology 2003, 3:6) • C) Plasmodium falciparum (strain K1, Korsinczky M et al., Antimicrobial agents and chemotherapy 2000, 44(8): 2100-2108; Thaitong S and Beale GH, Trans. R. Soc. Trop. Med. Hyg. 1981, 75: 271-273; Trager W and Jensen JB, Science 1976, 193: 673-675) • D) Plasmodium falciparum (strain 3D7, Mu et al., PLoS Biology 2005, 3(10): e335)

[4] = system: RKOp21 (human colon adenocarcinoma) cells; test: XTT cytotoxicity assay, RKOp21 cells; conditions: 48 h, 2 days of continuous drug exposure
Method: as §1, §2, §3, §4, §5, §6, §7, §8

[5] = system: Trypanosoma brucei rhodesiense (strain STIB900); test: In vitro drug activity assay, protozoon B (bloodstream form trypomastigotes, Alamar Blue); conditions: incubated for 72 hours
Method: Trypanosoma brucei rhodesiense STIB900 bloodstream form trypomastigotes were maintained in HMI-18 medium (Hirumi H, Hirumi K, J Parasitol. 1989, 75(6):985-989) with 15% heat-inactivated fetal calf serum at 37°C, 5% CO2, humidified atmosphere. Trypomastigotes were washed and resuspended in fresh medium at a concentration of 2 x 10^5 mL. Test compounds were given to the trypomastigotes and plates were incubated for 72 hours at 37°C, 5% CO2, humidified atmosphere. At 72 hours the plates were assessed microscopically before Alamar Blue was added (Raz et al., Acta Trop. 1997, 68: 139-147). Plates were read after 5 to 6 hours at EX/EM 530/585 nm with a filter cutoff at 550 nm. ED50 values were calculated with Msxlfit (IDBS).
as §12

[6] = system: Cryptocoocus gattii (ATCC 32608); test: Anti-fungal susceptibility test (microdilution), fungus G; conditions: fungus G; no visible growth after 72 hours at 35° C; read-out: MIC
Method: as §9, §10, §11

[7] = system: Candida albicans (strain TS3); test: Anti-fungal susceptibility test (microdilution), fungus C; conditions: Candida albicans, no visible growth after 48 hours at 35° C, read-out: MIC
Method: as §9, §10, §11

CCCCCCCCCCCCCCCCOP(=O)([O-])OCC[N+]1(C)CCCCC1 [Compound 2, Phosphoric acid 2-(1-methyl-piperidin-1-yl)-ethyl ester hexadecyl ester]
IC50 [1]: 19.6 µM | MIC [2]: 2 µg/mL (≈ 4.47 µM) | ED50 (µg/mL) [3]: 2,21 µg/mL | IC50 [4]: 40.9 µM | ED50 (µg/mL) [5]: 17,50 µg/mL | MIC [6]: 0.75 µg/mL (≈ 1.68 µM) | MIC [7]: 1.5 µg/mL (≈ 3.35 µM)
